Source: PubChem BioAssay (NCI)
Where “and” joins values, the source holds several entries; their conditions need not be identical. Identical values can stand only once.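 Compound exposure: 48 hours, 5 concentrations, 96-well plates. Here, GI50 denotes the concentration required for 50% inhibition of growth. TGI: total growth inhibition.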

Key:
Test in all cases: NCI anticancer screen, dose series, 48 h
SK-MEL-5 melanoma = tested on: SK-MEL-5 melanoma
SW-620 colon = tested on: SW-620 colon
MOLT-4 leukemia = tested on: MOLT-4 leukemia
SK-OV-3 ovarian = tested on: SK-OV-3 ovarian
HT29 colon = tested on: HT29 colon
SN12C renal = tested on: SN12C renal
OVCAR-5 ovarian = tested on: OVCAR-5 ovarian
SR leukemia = tested on: SR leukemia
CAKI-1 renal = tested on: CAKI-1 renal

Row | Compound | TGI (SK-MEL-5 melanoma) | TGI (SW-620 colon) | TGI (MOLT-4 leukemia) | TGI (SK-OV-3 ovarian) | TGI (HT29 colon) | TGI (SN12C renal) | TGI (OVCAR-5 ovarian) | TGI (SR leukemia) | TGI (CAKI-1 renal) | GI50 (CAKI-1 renal) | GI50 (SK-MEL-5 melanoma) | GI50 (MOLT-4 leukemia) | GI50 (HT29 colon) | GI50 (OVCAR-5 ovarian) | GI50 (SR leukemia)
1 | CCOC(=O)c1cc(C)nc2c1c(=O)n(-c1ccccc1)c(=O)n2CCCCN1CCN(c2ccccc2)CC1 | > 100 µM | > 100 µM | > 100 µM | > 100 µM | > 100 µM | > 100 µM | > 100 µM | 48.4 µM | – | – | – | – | – | – | –
2 | C=CCC1C(O[Si](C)(C)C(C)(C)C)C(CO[Si](C)(C)C(C)(C)C)OC1n1ccc(=O)[nH]c1=O (stereo not given) | 2.91 µM | 2.84 µM | 2.84 µM | – | 2.8 µM | 2.8 µM | 2.57 µM | 18.4 µM | – | – | – | – | – | – | –
3 | Cc1ccc(S(=O)(=O)Nn2c(O)c(C#N)c(-c3ccc(Cl)cc3)c(C#N)c2=O)cc1 | > 100 µM | > 100 µM | > 100 µM | > 100 µM | > 100 µM | > 100 µM | > 100 µM | – | > 100 µM | – | – | – | – | – | –
4 | CCOP(=O)(OCC)/C(=C/c1cccs1)CC(C)=O | > 100 µM | > 100 µM | > 100 µM | > 100 µM | > 100 µM | > 100 µM | > 100 µM | – | > 100 µM | – | – | – | – | – | –
5 | COc1cc2cc(C(=O)N3CC(COS(C)(=O)=O)c4ccc(O)cc43)[nH]c2c(OC)c1OC (stereo not given) | < 0.0001 µM | 0.111 µM and 0.0118 µM | 0.0924 µM | – | – | 0.0165 µM | 0.0428 µM | – | < 0.0001 µM | < 0.0001 µM | – | – | – | – | –
6 | CN(C)/N=N/c1nc2c(c(=O)n(C)c(=O)n2C)n1CC(O)CO (stereo not given) | > 100 µM | > 100 µM | > 100 µM | > 100 µM | > 100 µM | > 100 µM | > 100 µM | – | > 100 µM | – | – | – | – | – | –
7 | O=C1CC(=O)n2cnc3cccc(c32)N1 | > 100 µM | > 100 µM | – | > 100 µM | > 100 µM | > 100 µM | > 100 µM | > 100 µM | > 100 µM | – | – | – | – | – | –
8 | Cc1cc(C)c2c(c1)C(=O)/C(=C/c1ccccc1C(=O)O)C2 | > 100 µM | > 100 µM | > 100 µM | – | > 100 µM | > 100 µM | – | > 100 µM | > 100 µM | – | – | – | – | – | –
9 | CCOC(=O)c1cc2c([N+](=O)[O-])c(N)ccc2s1 | > 100 µM | > 100 µM | > 100 µM | > 100 µM | > 100 µM | > 100 µM | > 100 µM | – | > 100 µM | – | – | – | – | – | –
10 | CCc1cc2c(c3c1CCCC3=O)CC1(Cc3ccc(C(=O)OC)cc3C1)C2 (stereo not given) | 30.1 µM | > 100 µM | > 100 µM | > 100 µM | > 100 µM | > 100 µM | > 100 µM | – | > 100 µM | – | – | – | – | – | –
11 | CC1(C)CC(=O)C2(CC(CSc3ccccc3)C(CS(=O)(=O)c3ccccc3)C2)C(=O)C1 (stereo not given) | > 100 µM | > 100 µM | > 100 µM | > 100 µM | > 100 µM | > 100 µM | > 100 µM | – | > 100 µM | – | – | – | – | – | –
12 | O=[N+]([O-])c1cccc(N=Nc2c(O)c(S(=O)(=O)O)cc3cc(S(=O)(=O)O)ccc23)c1 | > 100 µM | > 100 µM | > 100 µM | > 100 µM | – | > 100 µM | > 100 µM | > 100 µM | > 100 µM | – | – | – | – | – | –
13 | Cc1cc2c([nH]c3ccccc32)c(O)c1-c1c(C)cc2c([nH]c3ccccc32)c1O | 30.1 µM | 50.8 µM | 16.3 µM | – | 19.5 µM | 6.44 µM | 29 µM | 16 µM | 27.9 µM | 14.7 µM | 16.5 µM | 3.62 µM | 6.04 µM | 15 µM | 3.16 µM
14 | Cn1c(-c2ccc(/C=N/NC(=S)N/N=C/c3ccc(-c4c[n+]5ccsc5n4C)cc3)cc2)c[n+]2ccsc12 | > 100 µM | > 100 µM | > 100 µM | > 100 µM | > 100 µM | > 100 µM | > 100 µM | > 100 µM | – | – | – | – | – | – | –
15 | c1ccc(CN2CCC(Nc3ccccc3)(c3nnnn3Cc3ccccc3)CC2)cc1 | 25.6 µM | 60.6 µM | > 100 µM | > 100 µM | 24.2 µM | > 100 µM | 76.1 µM | 93.2 µM | – | – | – | – | – | – | –
16 | Nc1nc(Cl)cc(NC23CC4CC(CC(C4)C2)C3)n1 | – | > 100 µM | > 100 µM | > 100 µM | – | > 100 µM | > 100 µM | > 100 µM | > 100 µM | – | – | – | – | – | –
17 | O=c1oc(C(C(F)(F)F)C(F)(F)F)nc2ccccc12 | > 100 µM | > 100 µM | > 100 µM | > 100 µM | > 100 µM | – | > 100 µM | > 100 µM | > 100 µM | – | – | – | – | – | –
18 | O=C1NC(=O)C(C(CC(=O)c2ccc(Cl)cc2)c2ccc(Cl)cc2)C(=O)N1 (stereo not given) | > 100 µM | > 100 µM | > 100 µM | – | > 100 µM | > 100 µM | > 100 µM | > 100 µM | – | – | – | – | – | – | –
19 | Cc1ccccc1N=C(N)Nc1ccccc1C | > 100 µM | > 100 µM | > 100 µM | > 100 µM | > 100 µM | > 100 µM | > 100 µM | – | > 100 µM | – | – | – | – | – | –
20 | Cc1ccc(S(=O)(=O)Nc2nnc(S(N)(=O)=O)s2)cc1 | > 100 µM | > 100 µM | > 100 µM | > 100 µM | – | > 100 µM | > 100 µM | > 100 µM | > 100 µM | – | – | – | – | – | –
21 | C/C(=N\NC(=S)N(C)C)c1cccnn1 | > 20.7 µM | > 100 µM | 3.08 µM | > 100 µM | > 100 µM | > 100 µM | > 57.3 µM | > 20.3 µM | – | – | – | – | – | – | –
22 | CC(=O)Nc1ccc(OC/C(N)=N/NC(=O)c2ccncc2)cc1 | – | > 100 µM | > 100 µM | > 100 µM | > 100 µM | > 100 µM | > 100 µM | – | > 100 µM | – | – | – | – | – | –
23 | CN(C)CCn1c(CO)nc2c1c(=O)n(C)c(=O)n2C | > 100 µM | > 100 µM | – | > 100 µM | > 100 µM | > 100 µM | > 100 µM | > 100 µM | > 100 µM | – | – | – | – | – | –
24 | CCCCCCCCCCCCCCCCCCNc1nc(=O)n(C2CC(O)C(COP(=O)(O)O)O2)cc1F (stereo not given) | > 100 µM | > 100 µM | > 96.1 µM | > 100 µM | > 100 µM | > 100 µM | > 100 µM | – | > 100 µM | – | – | – | – | – | –
25 | C=C(C)[C@H]1C2=CC(C)=C(O2)[C@@H](O[C@@H]2c3oc(cc3C)[C@H](C(=C)C)[C@H]3C=C(CC[C@H]2C(=C)C)C(=O)O3)[C@H](C(=C)C)CCC2=C[C@H]1OC2=O | > 100 µM | > 100 µM | > 100 µM | > 100 µM | – | > 100 µM | > 100 µM | > 100 µM | > 100 µM | – | – | – | – | – | –
